Experimental data: ChEMBL document CHEMBL1139680, “2,4-Disubstituted piperidines as selective CC chemokine receptor 3 (CCR3) antagonists: synthesis and selectivity” (Bioorg Med Chem Lett, 2006)

Experiments:
[1] = biological target: T1, C-C chemokine receptor type 3 (Homo sapiens, UniProt P51677); assay: Binding affinity to CCR3
T1 sequence (P51677 whole entry): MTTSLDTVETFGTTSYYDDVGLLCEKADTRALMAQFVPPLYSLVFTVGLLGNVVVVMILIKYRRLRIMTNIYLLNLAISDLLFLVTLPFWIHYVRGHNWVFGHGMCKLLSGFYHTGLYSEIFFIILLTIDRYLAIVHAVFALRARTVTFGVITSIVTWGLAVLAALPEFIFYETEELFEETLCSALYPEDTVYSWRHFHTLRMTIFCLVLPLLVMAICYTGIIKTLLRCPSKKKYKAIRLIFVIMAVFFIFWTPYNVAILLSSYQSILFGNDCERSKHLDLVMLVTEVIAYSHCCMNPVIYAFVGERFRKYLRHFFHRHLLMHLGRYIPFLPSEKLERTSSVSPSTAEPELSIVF

[2] = biological target: Sodium-dependent noradrenaline transporter (Homo sapiens, UniProt P23975); assay: Inhibition of NET
Sodium-dependent noradrenaline transporter, sequence (P23975 whole entry): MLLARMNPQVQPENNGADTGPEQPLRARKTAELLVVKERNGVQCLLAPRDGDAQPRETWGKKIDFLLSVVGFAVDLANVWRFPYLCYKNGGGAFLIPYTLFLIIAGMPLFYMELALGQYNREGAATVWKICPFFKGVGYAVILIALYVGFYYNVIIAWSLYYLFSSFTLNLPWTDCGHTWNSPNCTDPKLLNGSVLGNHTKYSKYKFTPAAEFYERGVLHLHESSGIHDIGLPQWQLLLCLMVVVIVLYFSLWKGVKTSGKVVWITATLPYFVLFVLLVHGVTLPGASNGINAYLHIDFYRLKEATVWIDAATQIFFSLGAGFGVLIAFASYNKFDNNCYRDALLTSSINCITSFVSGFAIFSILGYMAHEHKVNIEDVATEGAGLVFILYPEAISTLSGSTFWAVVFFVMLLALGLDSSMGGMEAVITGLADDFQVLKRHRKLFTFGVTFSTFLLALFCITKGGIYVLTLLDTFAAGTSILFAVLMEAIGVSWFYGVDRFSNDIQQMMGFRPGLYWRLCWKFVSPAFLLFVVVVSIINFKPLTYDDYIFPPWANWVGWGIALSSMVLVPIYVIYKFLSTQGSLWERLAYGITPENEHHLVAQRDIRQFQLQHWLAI

[3] = biological target: Sodium-dependent dopamine transporter (Homo sapiens, UniProt Q01959); assay: Inhibition of DAT
Sodium-dependent dopamine transporter, sequence (Q01959 whole entry): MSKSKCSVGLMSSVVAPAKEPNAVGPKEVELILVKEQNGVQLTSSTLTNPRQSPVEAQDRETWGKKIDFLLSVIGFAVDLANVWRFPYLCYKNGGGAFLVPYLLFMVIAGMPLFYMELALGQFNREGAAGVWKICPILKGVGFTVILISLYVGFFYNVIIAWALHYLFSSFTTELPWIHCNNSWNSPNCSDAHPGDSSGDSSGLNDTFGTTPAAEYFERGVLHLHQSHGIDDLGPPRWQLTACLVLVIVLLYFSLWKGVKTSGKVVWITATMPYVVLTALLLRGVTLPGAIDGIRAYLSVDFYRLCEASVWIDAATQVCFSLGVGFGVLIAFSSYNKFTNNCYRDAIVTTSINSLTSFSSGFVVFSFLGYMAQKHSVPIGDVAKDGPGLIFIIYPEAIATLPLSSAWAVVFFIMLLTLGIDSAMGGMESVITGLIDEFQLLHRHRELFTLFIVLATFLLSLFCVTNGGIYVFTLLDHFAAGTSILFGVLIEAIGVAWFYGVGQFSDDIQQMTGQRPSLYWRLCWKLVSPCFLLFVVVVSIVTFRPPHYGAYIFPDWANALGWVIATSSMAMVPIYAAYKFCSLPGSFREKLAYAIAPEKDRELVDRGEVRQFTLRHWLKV

[4] = biological target: Sodium-dependent serotonin transporter (Homo sapiens, UniProt P31645); assay: Inhibition of 5HTT
Sodium-dependent serotonin transporter, sequence (P31645 whole entry): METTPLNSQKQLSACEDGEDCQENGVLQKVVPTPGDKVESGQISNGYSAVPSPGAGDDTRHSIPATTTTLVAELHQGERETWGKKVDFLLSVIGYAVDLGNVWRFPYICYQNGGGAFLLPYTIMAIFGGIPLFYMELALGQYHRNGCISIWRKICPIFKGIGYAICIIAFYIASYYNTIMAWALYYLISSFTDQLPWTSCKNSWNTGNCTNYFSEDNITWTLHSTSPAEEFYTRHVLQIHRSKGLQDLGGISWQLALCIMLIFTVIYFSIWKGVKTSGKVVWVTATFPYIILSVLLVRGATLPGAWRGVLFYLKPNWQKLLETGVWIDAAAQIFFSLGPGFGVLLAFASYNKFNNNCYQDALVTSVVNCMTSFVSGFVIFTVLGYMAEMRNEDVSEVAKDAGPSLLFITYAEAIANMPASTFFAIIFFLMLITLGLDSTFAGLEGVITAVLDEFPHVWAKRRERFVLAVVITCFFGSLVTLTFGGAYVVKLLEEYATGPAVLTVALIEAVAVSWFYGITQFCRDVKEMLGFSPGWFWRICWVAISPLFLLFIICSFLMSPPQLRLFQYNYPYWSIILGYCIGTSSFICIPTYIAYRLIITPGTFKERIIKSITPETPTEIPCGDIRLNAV

[5] = Half life in cynomolgus monkey at 5 mg/kg, po; type: ADME, organism-based, Macaca fascicularis; design: dose 5 mg/kg, route oral; conditions: in vivo
[6] = Clearance in cynomolgus monkey at 2 mg/kg, iv; type: ADME, organism-based, Macaca fascicularis; design: dose 2 mg/kg, route intravenous; conditions: in vivo
[7] = Volume of distribution in mouse ar 2 mg/kg, iv; type: ADME, organism-based; design: dose 2 mg/kg, route intravenous; conditions: in vivo, read-out: Vdss
[8] = Oral bioavailability in mouse at 10 mg/kg, po; type: ADME, organism-based; conditions: in vivo
[9] = Cmax in mice after 10 mg/kg oral dose; type: ADME, organism-based; design: dose 10 mg/kg, route oral; conditions: mouse, in vivo
[10] = Half life in mouse at 10 mg/kg, po; type: ADME, organism-based; design: dose 10 mg/kg, route oral; conditions: in vivo
[11] = test system: Eosinophil; assay: Inhibition of eotaxin-induced calcium mobilization in eosinophil; type: functional, cell-based; conditions: Homo sapiens
[12] = test system: Eosinophil; assay: Inhibition of eotaxin-induced human eosinophil chemotaxis; type: functional, cell-based
[13] = Oral bioavailability in cynomolgus monkey at 5 mg/kg, po; type: ADME, organism-based, Macaca fascicularis; conditions: in vivo
[14] = Cmax in cynomolgus monkeys after 5 mg/kg oral dose; type: ADME, organism-based, Macaca fascicularis; design: dose 5 mg/kg, route oral; conditions: cynomolgus monkey, in vivo
[15] = Clearance in mouse at 2 mg/kg, iv; type: ADME, organism-based; design: dose 2 mg/kg, route intravenous; conditions: in vivo
[16] = Volume of distribution in cynomolgus monkey at 2 mg/kg, iv; type: ADME, organism-based, Macaca fascicularis; design: dose 2 mg/kg, route intravenous; conditions: in vivo, read-out: Vdss

Structure (SMILES) | IC50 [1] | Ki [2] [nM] | Ki [3] [nM] | Ki [4] [nM] | further results
CC(=O)c1cc(NC(=O)NCCC[C@H]2C[C@H](Cc3ccc(F)cc3)CCN2CC(F)(F)F)cc(C(C)=O)c1 | 1380 nM (antagonist) |  |  |  | 
CC(=O)c1cc(NC(=O)NCCC[C@H]2C[C@H](Cc3ccc(F)cc3)CCN2)cc(C(C)=O)c1 | 0.5 nM (antagonist) | 95 | 119 | 3.5 | 
CC(=O)c1cccc(NC(=O)NCCC[C@H]2C[C@H](Cc3ccc(F)cc3)CCN2C)c1 | 1.7 nM (antagonist) | 257 | 96 | 572 | 
C=CCN1CC[C@@H](Cc2ccc(F)cc2)C[C@@H]1CCCNC(=O)Nc1cc(C(C)=O)cc(C(C)=O)c1 | 1 nM (antagonist) | 876 | 297 | 69 | 
CC(=O)c1cc(NC(=O)NCCC[C@H]2C[C@H](Cc3ccc(F)cc3)CCN2CCO)cc(C(C)=O)c1 | 0.9 nM (antagonist) | 1390 | 451 | 40 | 
CC(=O)c1cccc(NC(=O)NCCC[C@H]2C[C@H](Cc3ccc(F)cc3)CCN2)c1 | 1.4 nM (antagonist) | 233 | 219 | 18 | 
CC(=O)c1cc(NC(=O)NCCC[C@H]2C[C@H](Cc3ccc(F)cc3)CCN2CCF)cc(C(C)=O)c1 | 2.3 nM (antagonist) | 317 | 651 | 49 | 
C#CCN1CC[C@@H](Cc2ccc(F)cc2)C[C@@H]1CCCNC(=O)Nc1cc(C(C)=O)cc(C(C)=O)c1 | 1.9 nM (antagonist) | 524 | 621 | 305 | 
CC(=O)c1cc(NC(=O)NCCC[C@H]2C[C@H](Cc3ccc(F)cc3)CCN2C(=N)N)cc(C(C)=O)c1 | 4.3 nM (antagonist) | 388 | 31 | 19 | 
CC(=O)c1cccc(NC(=O)NCCC[C@H]2C[C@H](Cc3ccc(F)cc3)CCN2CCO)c1 | 7 nM (antagonist) | 1820 | 2240 | 50 | 
CC(=O)c1cccc(NC(=O)NCCC[C@H]2C[C@H](Cc3ccc(F)cc3)CCN2CC2CC2)c1 | 2.5 nM (antagonist) | 3450 | 251 | 117 | 
CCCN1CC[C@@H](Cc2ccc(F)cc2)C[C@@H]1CCCNC(=O)Nc1cccc(C(C)=O)c1 | 2 nM (antagonist) | 4170 | 756 | 296 | half-life [5]: 9 h; clearance [6]: 6.67 mL/min/kg; Vd [7]: 8 L/kg; bioavailability [8]: 36%; Cmax [9]: 274 nM; half-life [10]: 1.4 h; IC50 [11]: 26 nM; EC50 [12]: 19 nM; bioavailability [13]: 18%; Cmax [14]: 989 nM; clearance [15]: 177 mL/min/kg; Vd [16]: 3.1 L/kg
C=CCN1CC[C@@H](Cc2ccc(F)cc2)C[C@@H]1CCCNC(=O)Nc1cccc(C(C)=O)c1 | 4.1 nM (antagonist) | 1230 | 855 | 217 | 
CC(=O)CN1CC[C@@H](Cc2ccc(F)cc2)C[C@@H]1CCCNC(=O)Nc1cc(C(C)=O)cc(C(C)=O)c1 | 0.9 nM (antagonist) | 381 | 754 | 11 | 
CC(=O)c1cc(NC(=O)NCCC[C@H]2C[C@H](Cc3ccc(F)cc3)CCN2C(C)=O)cc(C(C)=O)c1 | 3.9 nM (antagonist) | 1380 | 1220 | 5460 | IC50 [11]: 133 nM; EC50 [12]: > 100 nM
CC(=O)c1cc(NC(=O)NCCC[C@H]2C[C@H](Cc3ccc(F)cc3)CCN2CCCO)cc(C(C)=O)c1 | 1.3 nM (antagonist) | 497 | 609 | 212 | 
CCC(=O)N1CC[C@@H](Cc2ccc(F)cc2)C[C@@H]1CCCNC(=O)Nc1cc(C(C)=O)cc(C(C)=O)c1 | 5.8 nM (antagonist) | 9260 | 2080 | 224 | 
CC(=O)c1cc(NC(=O)NCCC[C@H]2C[C@H](Cc3ccc(F)cc3)CCN2CC(N)=O)cc(C(C)=O)c1 | 3.6 nM (antagonist) | 5010 | 2660 | 710 | 
CCCN1CC[C@@H](Cc2ccc(F)cc2)C[C@@H]1CCCNC(=O)Nc1cc(C(C)=O)cc(C(C)=O)c1 | 0.7 nM (antagonist) | 1480 | 157 | 166 | IC50 [11]: 1.2 nM; EC50 [12]: 4.7 nM
CC(=O)c1cc(NC(=O)NCCC[C@H]2C[C@H](Cc3ccc(F)cc3)CCN2CC(F)F)cc(C(C)=O)c1 | 12.4 nM (antagonist) | 1050 | 931 | 328 | 
CC(=O)c1cccc(NC(=O)NCCC[C@H]2C[C@H](Cc3ccccc3)CCN2)c1 (racemic) | 6 nM (antagonist) | 39 | 32 | 42 | 
N#Cc1cccc(NC(=O)NCCC[C@H]2C[C@H](Cc3ccccc3)CCN2)c1 (racemic) | 22 nM (antagonist) |  |  |  | 
N#Cc1cccc(NC(=O)NCCCC[C@H]2C[C@H](Cc3ccccc3)CCN2)c1 (racemic) | 142 nM (antagonist) |  |  |  | 
N#Cc1cccc(NC(=O)NCCC[C@@H]2C[C@H](Cc3ccccc3)CCN2)c1 (racemic) | 386 nM (antagonist) |  |  |  | 
N#Cc1cccc(NC(=O)NCC[C@H]2C[C@H](Cc3ccccc3)CCN2)c1 (racemic) | 185 nM (antagonist) |  |  |  | 
N#Cc1cccc(NC(=O)NCCC[C@H]2C[C@H](Cc3ccccc3)CCN2)c1 (stereo in doubt; 4) | 13 nM (antagonist) | 37 | 34 | 35 | 
N#Cc1cccc(NC(=O)NCCC[C@H]2C[C@H](Cc3ccccc3)CCN2)c1 (stereo in doubt; 5) | 644 nM (antagonist) | 46 | 10 | 54 | 
